Test results published in patent US7786097B2, “Tricyclic compounds, compositions and methods” (Pfizer Inc., priority 2007, dated 2010).

Tested on: TNFα production in human whole blood
Assay: Ex vivo LPS-stimulated human whole blood, TNFα
Format: cell-based
Conditions: LPS 100 ng/ml, 22 hours, mean of two donors
Method: Venous blood from human donors was collected as 10 ml aliquots in tubes containing sodium heparin (BD Vacutainer from Becton Dickinson and Company, Franklin Lakes, N.Y.). Blood was added to sterile polystyrene round bottom 96-well tissue culture plates (Corning Costar) at 100 μl/well, omitting the outside wells. Media (RPMI Medium 1640 with L-glutamine, Invitrogen Corporation, Carlsbad, Calif.) was added to the blood in 90 μl aliquots for a total volume of 190 μl. Outside wells were filled with 200 μl of media. Blood was placed in a humidified 37° C. incubator with 5% CO2 while compounds were prepared (nearly 60 minutes).
Compounds were prepared from 10 mM stock solutions in dimethylsulfoxide (DMSO, Sigma-Aldrich). […] Final DMSO and ethanol concentrations in the assay were 0.1% and 1.5%. The samples were gently triturated twice to mix and replaced in the incubator. LPS stock (E. coli serotype 0111:B4, Sigma-Aldrich), stored in aliquots of 100 μg/ml in RPMI at −20° C., was diluted 1/50 in RPMI to make a working stock solution. After 60 minutes of incubation, 10 μl of the prepared LPS working stock was added to the blood to a final concentration of 100 ng/ml, omitting wells to be used as negative control. The samples were again gently triturated and the plates incubated overnight for 22 hours. Following incubation, the blood was centrifuged at 1500×g for 5 minutes and the plasma removed to either freeze at −20° C. or assay for cytokine release.
IL-1β, IFNγ, IL-6, and TNFα protein levels were measured using Meso Scale assay kits (Meso Scale Discovery, Gaithersburg, Md.). Reagents were allowed to come to room temperature. Meso Scale plates were blocked with 30 μl of human plasma/serum assay diluent with gentle shaking for 60 minutes at room temperature. Plates were washed 3× with wash buffer (PBS, Invitrogen Corporation, with 0.05% Tween-20, Sigma-Aldrich). Calibrators for standard curves were prepared in human plasma/serum assay diluent as a […] serial dilution to achieve final concentrations ranging from 50000 pg/ml to 3.2 pg/ml. Samples and calibrators were added at 20 μl/well, then incubated at room temperature with gentle shaking for 90 minutes. Plates were again washed 3 times with wash buffer. Detection antibody was diluted in human plasma/serum antibody diluent to 1 μg/ml and added to the plate at 20 μl/well. Plates were incubated as before for 60 minutes and washed again. Read Buffer T<4×) was diluted 1:1 with mqH2O to 2 times concentration and 150 μl added to each well. Plates were analyzed on the SECTOR Imager 6000 (Meso Scale Discovery) to generate raw signal values.
IL-1β, IFN-γ, IL-6, and TNFα sample values were verified to be within the calibrator standard curves. Individual values were compared to positive and negative controls (vehicle treated blood with LPS and vehicle treated blood without LPS, respectively) to generate % inhibition. Triplicate values were averaged for each donor. The values for two donors were averaged (only one donor was used for IL-1β) and graphed using 4-parameter fit curves in the GraFit 5.0.11 application.

C[C@]12C=CC(=O)C=C1CC[C@@H]1[C@@H]2[C@@H](O)C[C@@]2(C)[C@H]1CC[C@]2(O)C(=O)CO [Prednisolone]
inhibition at 0.00137174 µM (1.371742 nM): 6.61% | inhibition at 0.00411523 µM (4.115226 nM): 5.31% | inhibition at 0.0123457 µM (12.34568 nM): 12.9% | inhibition at 0.037037 µM (37.03704 nM): 27.7% | inhibition at 0.111111 µM (111.1111 nM): 62.4% | inhibition at 0.333333 µM (333.3333 nM): 89% | inhibition at 1 µM (1000 nM): 93.9%
